Among the data in US20110086759A1, “CHEMICAL COMPOUNDS” (SYNGENTA CROP PROTECTION, INC., priority 2007, published 2011) are pest or weed control values, retold here.

Each structure is given as a SMILES string.

Type in all cases: in vivo
In assay [1] the test system is Solanum nigrum (SOLNI). The assay is described as follows: Post-emergence biological efficacy, glasshouse pot test. The note with it: 312 h, post-emergence, 1,000 g/ha, evaluated after 13 days (100=total damage; 0=no damage), read-out: Percentage damage caused to weed species, SOLNI. In short, it runs like this:
(§1)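 Pot-grown weeds were sprayed 8 days after sowing with test compound in acetone/water (50:50) with 0.5% Tween 20 at 1000 or 250 g/ha. Glasshouse at 24/16° C day/night, 14 h light, 65% humidity. Damage scored 0-100 (100 = total damage) after 13 days.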

The subject of assay [2] is Setaria faberi (SETFA). The description is as above. The note with it: 312 h, post-emergence, 1,000 g/ha, evaluated after 13 days (100=total damage; 0=no damage), read-out: Percentage damage caused to weed species, SETFA. In short, it runs like this:
as §1

Assay [3] has as its system Echinochloa crus-galli (ECHCG). The assay is described as above. The note with it: 312 h, post-emergence, 1,000 g/ha, evaluated after 13 days (100=total damage; 0=no damage), read-out: Percentage damage caused to weed species, ECHCG. In short, it runs like this:
as §1

Assay [4] has as its system Amaranthus retoflexus (AMARE). The assay is described as above. The note with it: Amaranthus retroflexus, 312 h; post-emergence, 1,000 g/ha, evaluated after 13 days (100=total damage; 0=no damage); read-out: Percentage damage caused to weed species, AMARE. In short, it runs like this:
as §1

The subject of assay [5] is Ipomea hederaceae (IPOHE). Described as above. The note with it: Ipomoea hederacea, 312 h; post-emergence, 1,000 g/ha, evaluated after 13 days (100=total damage; 0=no damage); read-out: Percentage damage caused to weed species, IPOHE. An outline of the steps:
as §1

Assay [6] has as its system Alopecurus myosuroides (ALOMY). The assay is described as above. The note with it: 312 h, post-emergence, 1,000 g/ha, evaluated after 13 days (100=total damage; 0=no damage), read-out: Percentage damage caused to weed species, ALOMY. An outline of the steps: as §1
Assay [7] has as its system Solanum nigrum (SOLNI). The assay can be described thus: Pre-emergence biological efficacy, glasshouse pot test. The note with it: 312 h, pre-emergence, 1,000 g/ha, evaluated after 13 days (100=total damage; 0=no damage), read-out: Percentage damage SOLNI. In short, it runs like this:
(§2)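 Visual phytotoxicity (0 no damage, 100 total damage) assessed 13 d after treatment. Soil-sown pots sprayed one day post-sowing; dose 1000 or 250 g/ha; formulation in acetone/water 50:50, 0.5% Tween 20.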

The test system of assay [8] is Setaria faberi (SETFA). The description is as above. The note with it: 312 h, pre-emergence, 1,000 g/ha, evaluated after 13 days (100=total damage; 0=no damage), read-out: Percentage damage SETFA. In short, it runs like this:
as §2

Assay [9] deals with Echinochloa crus-galli (ECHCG). The assay is described as above. The note with it: 312 h, pre-emergence, 1,000 g/ha, evaluated after 13 days (100=total damage; 0=no damage), read-out: Percentage damage ECHCG. In short, it runs like this: as §2
Assay [10] deals with Amaranthus retoflexus (AMARE). Described as above. The note with it: Amaranthus retroflexus, 312 h; pre-emergence, 1,000 g/ha, evaluated after 13 days (100=total damage; 0=no damage); read-out: Percentage damage AMARE. An outline of the steps:
as §2

The subject of assay [11] is Ipomea hederaceae (IPOHE). Described as above. The note with it: Ipomoea hederacea, 312 h; pre-emergence, 1,000 g/ha, evaluated after 13 days (100=total damage; 0=no damage); read-out: Percentage damage IPOHE. In short, it runs like this:
as §2

Assay [12] deals with Alopecurus myosuroides (ALOMY). The assay is described as above. The note with it: 312 h, pre-emergence, 1,000 g/ha, evaluated after 13 days (100=total damage; 0=no damage), read-out: Percentage damage ALOMY. An outline of the steps: as §2

On to `COC(=O)c1nc(C2CC2)nc(NCCN2CCNC2=O)c1Cl` [Compound 4-219, 5-Chloro-2-cyclopropyl-6-methoxycarbonyl-4-[2-(2-oxo-imidazolidin-1-yl)ethylamino]-pyrimidine], for which the pest or weed control at 1000 g/ha in [1] was 50%; in [2], 10%; in assay [3], 0%; in assay [4], 50%; in assay [5] it was 50%; in [6], 0%. The pest or weed control at 1000 g/ha was found to be 30% in assay [7]; 0% in assay [8]; 0% in assay [9]; 60% in assay [10]; 90% in assay [11]; 0% in [12].
`COC(=O)c1nc(C2CC2)nc(NCCN2CCOCC2)c1Cl` [Compound 4-220, 5-Chloro-2-cyclopropyl-6-methoxycarbonyl-4-[2-(morpholin-4-yl)ethylamino]-pyrimidine]: the pest or weed control at 1000 g/ha in assay [1] worked out at 90%; in assay [2], 40%; in [3], 30%; in assay [4], 100%; in assay [5], 100%; in [6], 20%. Besides, the pest or weed control at 1000 g/ha in assay [7] was found to be 40%; in assay [8], 0%; in assay [9] it was 30%; in assay [10] it was 60%; in assay [11], 50%; in assay [12] it was 0%.
As to `COC(=O)c1nc(C2CC2)nc(NCCc2ccccc2)c1Cl` [Compound 4-221, 5-Chloro-2-cyclopropyl-6-methoxycarbonyl-4-(2-phenylethyl-amino)-pyrimidine], the pest or weed control at 1000 g/ha is 80% in assay [1]; 70% in assay [2]; 40% in assay [3]; 100% in [4]; 100% in assay [5]; 30% in assay [6]. The pest or weed control at 1000 g/ha amounted to 90% in assay [7]; 60% in assay [8]; 60% in assay [9]; 100% in assay [10]; 100% in assay [11]; 60% in assay [12].
Regarding `COC(=O)c1nc(C2CC2)nc(NCCc2ccc(S(N)(=O)=O)cc2)c1Cl` [Compound 4-222, 4-[2-(4-Amino-sulphonylphenyl)-ethylamino]-5-chloro-2-cyclo-propyl-6-methoxy-carbonylpyrimidine], the pest or weed control at 1000 g/ha in [1] stood at 20%; in assay [2], 0%; in assay [3], 0%; in assay [4] it was 30%; in assay [5], 60%; in [6], 0%. For the same molecule, the pest or weed control at 1000 g/ha in [7] worked out at 0%; in assay [8] it was 0%; in assay [9] it was 0%; in assay [10], 30%; in assay [11], 10%; in [12] it was 0%.
Take `COC(=O)c1nc(C2CC2)nc(NCCc2cccs2)c1Cl` [Compound 4-224, 5-Chloro-2-cyclopropyl-6-methoxycarbonyl-4-[2-(thiophen-2-yl)ethylamino]-pyrimidine]: the pest or weed control at 1000 g/ha in assay [1] worked out at 70%; in [2], 30%; in assay [3] it was 10%; in assay [4], 100%; in [5] it was 50%; in [6] it was 10%. Further, the pest or weed control at 1000 g/ha in assay [7] worked out at 30%; in [8] it was 0%; in [9], 0%; in assay [10], 20%; in assay [11], 70%; in [12], 0%.
With `COC(=O)c1nc(C2CC2)nc(NCCc2c[nH]c3ccccc23)c1Cl` [Compound 4-226, 5-Chloro-2-cyclopropyl-4-[2-(indol-3-yl)ethylamino]-6-methoxycarbonyl-pyrimidine], the pest or weed control at 1000 g/ha in [1] was determined as 80%; in assay [2] it was 50%; in [3] it was 10%; in assay [4] it was 100%; in [5] it was 60%; in assay [6] it was 30%. Moreover, the pest or weed control at 1000 g/ha stood at 60% in assay [7]; 0% in assay [8]; 10% in assay [9]; 70% in assay [10]; 100% in assay [11]; 0% in assay [12].
Regarding `COC(=O)c1nc(C2CC2)nc(NCCc2c[nH]c3ccc(OC)cc23)c1Cl` [Compound 4-227, 5-Chloro-2-cyclopropyl-6-methoxycarbonyl-4-[2-(5-methoxyindol-3-yl)-ethylamino]-pyrimidine], the pest or weed control at 1000 g/ha was 80% in assay [1]; 40% in assay [2]; 30% in [3]; 70% in assay [4]; 70% in [5]; 10% in assay [6]. Moreover, the pest or weed control at 1000 g/ha in assay [7] was 30%; in assay [8], 0%; in [9] it was 0%; in assay [10], 20%; in assay [11], 50%; in [12] it was 0%.
Regarding `COC(=O)c1nc(C2CC2)nc(NCCc2ccccn2)c1Cl` [Compound 4-228, 5-Chloro-2-cyclopropyl-6-methoxycarbonyl-4-[2-(pyrid-2-yl)ethylamino]-pyrimidine], the pest or weed control at 1000 g/ha amounted to 80% in [1]; 50% in assay [2]; 40% in [3]; 90% in assay [4]; 70% in assay [5]; 10% in assay [6]. The pest or weed control at 1000 g/ha in assay [7] came to 40%; in assay [8], 0%; in [9], 0%; in assay [10], 70%; in assay [11], 40%; in assay [12], 0%.
On to `COC(=O)c1nc(C2CC2)nc(NCCc2cc(C(F)(F)F)cc(Cl)n2)c1Cl` [Compound 4-229, 5-Chloro-4-[2-(6-chloro-4-trifluoromethyl-pyrid-2-yl)ethylamino]-2-cyclopropyl-6-methoxycarbonyl-pyrimidine], for which the pest or weed control at 1000 g/ha was found to be 90% in [1]; 70% in [2]; 20% in assay [3]; 100% in assay [4]; 60% in assay [5]; 10% in [6]. Further, the pest or weed control at 1000 g/ha in assay [7] worked out at 20%; in [8], 10%; in assay [9] it was 0%; in [10], 30%; in [11] it was 20%; in [12] it was 0%.
